Three molecules from patent publication US20030144360A1, “Composition and method for modulating BAR/FXR receptor activity” (Allergan Sales, Inc., priority 2001, published 2003) can be followed below.

The target in one assay is T1, BAR-RXRm heterodimers (Rattus norvegicus, UniProt Q62735).
T1 construct: nucleic acid regions encoding the following full-length proteins were cloned into a CMV expression vector; made in house; host or cells: receptors: in vitro translation; GST-GRIP1: E. coli
T1 sequence (Q62735 1-469): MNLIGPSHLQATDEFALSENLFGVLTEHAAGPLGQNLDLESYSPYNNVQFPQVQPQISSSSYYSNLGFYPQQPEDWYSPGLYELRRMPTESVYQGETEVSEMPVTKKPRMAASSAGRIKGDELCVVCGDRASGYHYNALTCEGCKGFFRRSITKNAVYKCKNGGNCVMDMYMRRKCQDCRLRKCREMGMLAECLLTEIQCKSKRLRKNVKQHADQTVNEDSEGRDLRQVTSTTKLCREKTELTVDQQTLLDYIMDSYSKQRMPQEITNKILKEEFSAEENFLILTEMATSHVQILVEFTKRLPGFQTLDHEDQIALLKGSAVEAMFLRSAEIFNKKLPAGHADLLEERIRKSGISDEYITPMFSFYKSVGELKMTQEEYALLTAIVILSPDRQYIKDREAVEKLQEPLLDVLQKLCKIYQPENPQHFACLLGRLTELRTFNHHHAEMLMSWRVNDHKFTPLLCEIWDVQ
T1 sequence (P19793 1-462 D322P partner): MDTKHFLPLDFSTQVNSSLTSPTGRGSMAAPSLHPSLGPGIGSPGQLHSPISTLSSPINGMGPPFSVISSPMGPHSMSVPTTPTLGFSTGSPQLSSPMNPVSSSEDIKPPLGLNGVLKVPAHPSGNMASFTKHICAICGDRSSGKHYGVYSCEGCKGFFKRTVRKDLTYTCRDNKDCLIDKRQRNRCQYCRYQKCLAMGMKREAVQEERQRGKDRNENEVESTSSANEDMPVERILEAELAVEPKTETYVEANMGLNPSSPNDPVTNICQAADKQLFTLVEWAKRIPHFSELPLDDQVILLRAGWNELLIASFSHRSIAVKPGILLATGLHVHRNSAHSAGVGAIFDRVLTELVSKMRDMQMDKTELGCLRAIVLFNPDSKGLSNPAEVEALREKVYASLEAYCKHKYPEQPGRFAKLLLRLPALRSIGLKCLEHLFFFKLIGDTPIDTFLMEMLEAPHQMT
Put plainly: Co-activator (GRIP1) recruitment gel shift assay, BAR-RXRm heterodimer. The assay is classed as binding. As to conditions: for recruitment of co-activator GRIP1 (gel shift): 32P-labeled IBABP IR1 response element, range of doses. An excerpt:
Coactivators, which bind agonist-activated nuclear receptors including, without limitation, RAR and RXR, function to assist the activated nuclear receptor exert its activity as a transcription factor. Characterized co-activators include CBP, p300, RIP140, SRC-1, ACTR, TIF2 (also called GRIP 1) and TIFI. In most cases coactivator will not bind the receptor in the absence of an agonist, moreover, receptor antagonists will often block coactivator binding, either directly or through the recruitment of a corepressor. Coactivator recruitment assays are therefore a valuable method for directly visualizing associative changes to a receptor caused by the addition of a prospective ligand.
GRIP 1 was expressed as a fusion protein with glutathione-S-transferase, an enzyme which selectively binds glutathione and can thus be used as an affinity reagent. See e.g., U.S. Pat. No. 5,654,176. The GST-GRIP1 fusion protein was expressed in E. coli and purified on glutathione-Sepharose columns. In vitro translated BAR/FXR\RXR (0.6-1.2 μl each) and GST-GRIP 1 (5 μg) were incubated for 30 min at room temperature with 100,000 cpm of the E. coli DNA polymerase Klenow fragment-labeled probes in 10 mM Tris (pH 8.0), 50 mM KCl, 6% glycerol, 0.05% NP-40, 1 mM DTT, 12.5 ng/μl poly dI-dC, and the indicated ligands. Complexes were electrophoresed through 5% polyacrylamide gel in […] (45 mM Tris-base, 45 mM boric acid, 1 mM EDTA) at room temperature. […]
To address the question of whether the two identified compounds are ligands for BAR, we used an in vitro co-activator recruitment assay. […] Because the association between co-activator and receptor results in the formation of a new higher molecular weight species, the ligand-dependent recruitment of co-activator can be detected in gel shift assays and is commonly used as an indicator for ligand binding. […]

The target of the next assay is T2, Gal-L-RXR (Homo sapiens, UniProt P19793).
T2 construct: expressed in transfected cells; host or cells: CV-1
T2 sequence (P19793 203-462): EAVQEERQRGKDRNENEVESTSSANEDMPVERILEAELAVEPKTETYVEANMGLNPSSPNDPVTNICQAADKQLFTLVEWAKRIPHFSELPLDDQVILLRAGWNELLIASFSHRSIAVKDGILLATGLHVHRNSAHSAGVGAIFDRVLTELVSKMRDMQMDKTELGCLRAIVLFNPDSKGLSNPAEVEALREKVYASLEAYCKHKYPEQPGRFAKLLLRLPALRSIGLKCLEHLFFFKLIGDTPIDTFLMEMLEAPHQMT
Put plainly: Gal-L-RXR fusion with Gal 4 reporter (MH100×4) in CV-1 cells. As to conditions: 5 μM. The assay is classed as cell-based.

For assay [1], the system named is AR, mPXR, hPXR, ERα, CARβ, LXRα, PPARα, PPARβ, PPARδ, VDR and TRβ. Put plainly: Activation of other RXR heterodimers / nuclear receptors (transfection assay). Type of assay: cell-based.
Protocol: CV-1 African Green Monkey cells were grown in Dulbecco's Modified Eagle's medium supplemented with 10% resin-charcoal stripped fetal bovine serum (FBS), 50 U/ml penicillin G and 50 μg/ml streptomycin sulfate (DMEM-FBS) at 37° C. in 5% CO2. One day prior to transfection, cells were plated to 50-80% confluence using phenol red-free DMEM-FBS. Cells were transiently transfected by lipofection as described in Forman et al., 81 Cell 687 (1995). Liposomes (N-[1-(2,3-dioleoyloxy)propyl]-N,N,N-ammonium methyl sulfate, sold by Boehringer Mannheim under the name DOTAP) were formed according to the manufacturer's instructions. […]
(§1) The harvested cells were assayed for the presence of luciferase activity. […] Luciferase activity was measured by reaction of the cell lysates with luciferin in a reaction buffer comprising: 20 mM tricine, 1.07 mM Mg(CO3)4-Mg(OH)2-5H2O, 2.67 mM MgSO4.7H2O, 0.1 mM EDTA, 0.5 mM Sodium luciferin, 0.15 mg/ml Coenzyme A, 5 mM DTT, and 0.5 mM adenosine triphosphate (ATP). Resulting chemiluminescence was measured in a luminometer. […]
(§2) The transfected cells were then treated with the indicated ligands for 40 hours. Activity was measured using luciferase expression in the cotransfection assay described above. […] Thus, Gal-L-RAR or Gal-L-RXR fusions were transfected into CV-1 cells with a Gal 4 reporter (MH100×4) and the effect of different ligands was evaluated.

Protocol for Gal-L-RXR: The nucleic acid regions encoding the following full-length proteins were cloned into a CMV expression vector.
For GAL-L-RXR, the plasmid nucleic acids encoded amino acids Glu203 to Thr462 of human RXRα (SEQ ID NO: 4) fused to the GAL4 sequences. The junction between the carboxyl terminal section of GAL4 and the amino terminal portion of the RXR LBD had the following structure:
CV-1 African Green Monkey cells were grown in Dulbecco's Modified Eagle's medium supplemented with 10% resin-charcoal stripped fetal bovine serum (FBS), 50 U/ml penicillin G and 50 μg/ml streptomycin sulfate (DMEM-FBS) at 37° C. in 5% CO2. […]
as §1, §2

On to `Cc1cc2c(cc1/C(=C/c1ccc(C(=O)O)cc1)[Si](C)(C)C)C(C)(C)CCC2(C)C` [AGN 29, (Z)-4-[2-(3,5,5,8,8-Pentamethy1-5,6,7,8-tetrahydronaphthalen-2-yl)-2-(trimethylsilyl)vinyl]benzoic Acid], for which, at BAR-RXRm heterodimers, the “recruitment of co-activator GRIP1 (gel shift)” value is listed as “shifted the majority of the complexes”. The “activation of RXR” value on Gal-L-RXR was “retained some ability to activate RXR”. Moreover, the “effect on other RXR heterodimers containing nuclear receptors” value in assay [1] is listed as “no effect”.

`CCCC/C(=C\c1ccc(C(=O)O)cc1)c1ccc2c(c1)C(C)(C)CCC2(C)C` [AGN 31, 4-[2-(5,5,8,8-Tetramethyl-5,6,7,8-tetrahydronaphthalen-2-yl)hex-1-enyl]benzoic Acid]: the “recruitment of co-activator GRIP1 (gel shift)” value on BAR-RXRm heterodimers is given as “shifted the majority of the complexes”. Besides, at Gal-L-RXR, the “activation of RXR” value is given as “retained some ability to activate RXR”. Further, in assay [1], the “effect on other RXR heterodimers containing nuclear receptors” value is given as “no effect”.

`CCCCCCOc1c(\C(C)=C/C=C/C(C)=C/C(=O)O)cc(C(C)C)cc1C(C)C` [AGN 34, (2E, 4E, 6Z)-7-(2-Hexyloxy-3,5-diisopropylphenyl)-3-methylocta-2,4,6-trienoic Acid]: the “competition (GRIP1 displacement) with BAR/RXRm heterodimer” value at BAR-RXRm heterodimers (AGN 29 as agonist, increasing AGN 34) is listed as “same results”.
